pIC50, pKi: −log10 of the molar value.
Molecular target: D(3) dopamine receptor (Homo sapiens, UniProt P35462)
Assay: DRUGMATRIX: Dopamine D3 radioligand binding (ligand: [3H] Spiperone)
Format: cell membranes, CHO, Membrane
Details: cho

Sequence of D(3) dopamine receptor (P35462 whole entry): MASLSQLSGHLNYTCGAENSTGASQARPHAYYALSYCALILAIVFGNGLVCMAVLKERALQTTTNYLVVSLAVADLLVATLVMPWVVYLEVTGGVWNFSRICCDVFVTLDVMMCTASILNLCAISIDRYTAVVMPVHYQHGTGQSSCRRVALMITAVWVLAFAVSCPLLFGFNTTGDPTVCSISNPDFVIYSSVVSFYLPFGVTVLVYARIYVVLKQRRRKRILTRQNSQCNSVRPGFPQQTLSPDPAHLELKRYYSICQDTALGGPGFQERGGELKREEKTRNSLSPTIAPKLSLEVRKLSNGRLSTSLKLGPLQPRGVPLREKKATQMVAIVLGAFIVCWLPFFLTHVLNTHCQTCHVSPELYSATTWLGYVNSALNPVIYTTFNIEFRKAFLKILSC

| SMILES | IC50 |
| --- | --- |
| CCCCC(=O)N(Cc1ccc(-c2ccccc2-c2nnn[nH]2)cc1)[C@H](C(=O)O)C(C)C | Not Active |
| O=C(O)COc1ccc(C(=O)c2cccs2)c(Cl)c1Cl | Not Active |
| C[C@@](Cc1ccc(O)c(O)c1)(NN)C(=O)O.O [CARBIDOPA] | Not Active |
| CC(C)NC[C@@H](O)COc1cccc2ccccc12 [DEXPROPRANOLOL] | Not Active |
| CC(C)NC[C@H](O)COc1cccc2ccccc12 [LEVOPROPRANOLOL] | Not Active |
| O=C(O)CCCCC1CCSS1 (stereo not drawn) [LIPOIC ACID, ALPHA] | Not Active |
| Oc1ccc2c3c1O[C@H]1[C@@H](O)CC[C@@]4(O)[C@@H](C2)N(CC2CCC2)CC[C@]314 [NALBUPHINE] | Not Active |
| C[C@]12C=CC(=O)C=C1CC[C@@H]1[C@@H]2C(=O)C[C@@]2(C)[C@H]1CC[C@]2(O)C(=O)CO [PREDNISONE] | Not Active |
| COC(=O)[C@H]1[C@H]2C[C@@H]3c4[nH]c5cc(OC)ccc5c4CCN3C[C@H]2C[C@@H](OC(=O)c2cc(OC)c(OC)c(OC)c2)[C@@H]1OC [RESERPINE] | Not Active |
| O=C(O)c1ccccc1O [SALICYLIC ACID] | Not Active |
| C[S+]([O-])c1ccc(-c2nc(-c3ccncc3)c(-c3ccc(F)cc3)[nH]2)cc1 (centres undefined) [SB-203580] | Not Active |
| CC1CCC(NC(=O)N(CCCl)N=O)CC1 (centres undefined) [SEMUSTINE] | Not Active |
| O=C1C[C@@H]2OCC=C3CN4CC[C@]56c7ccccc7N1[C@H]5[C@H]2[C@H]3C[C@H]46 [STRYCHNINE] | Not Active |
| C[N+](C)(C)CCOC(=O)CCC(=O)OCC[N+](C)(C)C.[Cl-].[Cl-] [SUCCINYLCHOLINE CHLORIDE] | Not Active |

Molecular target: Mitogen-activated protein kinase 14 (Homo sapiens, UniProt Q16539);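 also: inhibition of p38alpha enzyme activity in a biochemical kinase assay, with myelin basic protein serving as substrate; in other assays of this panel Not Active means under 50% inhibition at 10 µM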
Sequence (Q16539 whole entry): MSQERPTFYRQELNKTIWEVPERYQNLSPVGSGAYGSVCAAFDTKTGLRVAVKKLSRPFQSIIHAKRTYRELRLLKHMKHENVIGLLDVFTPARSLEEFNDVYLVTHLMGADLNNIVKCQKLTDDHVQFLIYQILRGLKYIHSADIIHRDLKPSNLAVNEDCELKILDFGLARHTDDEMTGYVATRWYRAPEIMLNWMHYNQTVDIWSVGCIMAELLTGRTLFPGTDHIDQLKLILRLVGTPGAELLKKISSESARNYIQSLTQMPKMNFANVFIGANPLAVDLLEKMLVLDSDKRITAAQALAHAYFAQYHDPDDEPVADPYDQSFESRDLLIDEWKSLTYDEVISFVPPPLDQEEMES
Assay: not given
Parameters: species or system Escherichia coli
Details: not given

| SMILES | IC50 |
| --- | --- |
| CCCCC(=O)N(Cc1ccc(-c2ccccc2-c2nnn[nH]2)cc1)[C@H](C(=O)O)C(C)C | Not Active |
| O=C(O)COc1ccc(C(=O)c2cccs2)c(Cl)c1Cl | Not Active |
| C[C@@](Cc1ccc(O)c(O)c1)(NN)C(=O)O.O [CARBIDOPA] | Not Active |
| CC(C)NC[C@@H](O)COc1cccc2ccccc12 [DEXPROPRANOLOL] | Not Active |
| CC(C)NC[C@H](O)COc1cccc2ccccc12 [LEVOPROPRANOLOL] | Not Active |
| O=C(O)CCCCC1CCSS1 (stereo not drawn) [LIPOIC ACID, ALPHA] | Not Active |
| Oc1ccc2c3c1O[C@H]1[C@@H](O)CC[C@@]4(O)[C@@H](C2)N(CC2CCC2)CC[C@]314 [NALBUPHINE] | Not Active |
| C[C@]12C=CC(=O)C=C1CC[C@@H]1[C@@H]2C(=O)C[C@@]2(C)[C@H]1CC[C@]2(O)C(=O)CO [PREDNISONE] | Not Active |
| COC(=O)[C@H]1[C@H]2C[C@@H]3c4[nH]c5cc(OC)ccc5c4CCN3C[C@H]2C[C@@H](OC(=O)c2cc(OC)c(OC)c(OC)c2)[C@@H]1OC [RESERPINE] | Not Active |
| O=C(O)c1ccccc1O [SALICYLIC ACID] | Not Active |
| CC1CCC(NC(=O)N(CCCl)N=O)CC1 (centres undefined) [SEMUSTINE] | Not Active |
| O=C1C[C@@H]2OCC=C3CN4CC[C@]56c7ccccc7N1[C@H]5[C@H]2[C@H]3C[C@H]46 [STRYCHNINE] | Not Active |
| C[N+](C)(C)CCOC(=O)CCC(=O)OCC[N+](C)(C)C.[Cl-].[Cl-] [SUCCINYLCHOLINE CHLORIDE] | Not Active |

Molecular target: Receptor tyrosine-protein kinase erbB-2 (Homo sapiens, UniProt P04626);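 also: inhibition of HER2 kinase enzyme activity, measured with Poly(Glu:Tyr) as the phosphorylation substrate; in other assays of this panel Not Active means under 50% inhibition at 10 µM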
Sequence (P04626 whole entry): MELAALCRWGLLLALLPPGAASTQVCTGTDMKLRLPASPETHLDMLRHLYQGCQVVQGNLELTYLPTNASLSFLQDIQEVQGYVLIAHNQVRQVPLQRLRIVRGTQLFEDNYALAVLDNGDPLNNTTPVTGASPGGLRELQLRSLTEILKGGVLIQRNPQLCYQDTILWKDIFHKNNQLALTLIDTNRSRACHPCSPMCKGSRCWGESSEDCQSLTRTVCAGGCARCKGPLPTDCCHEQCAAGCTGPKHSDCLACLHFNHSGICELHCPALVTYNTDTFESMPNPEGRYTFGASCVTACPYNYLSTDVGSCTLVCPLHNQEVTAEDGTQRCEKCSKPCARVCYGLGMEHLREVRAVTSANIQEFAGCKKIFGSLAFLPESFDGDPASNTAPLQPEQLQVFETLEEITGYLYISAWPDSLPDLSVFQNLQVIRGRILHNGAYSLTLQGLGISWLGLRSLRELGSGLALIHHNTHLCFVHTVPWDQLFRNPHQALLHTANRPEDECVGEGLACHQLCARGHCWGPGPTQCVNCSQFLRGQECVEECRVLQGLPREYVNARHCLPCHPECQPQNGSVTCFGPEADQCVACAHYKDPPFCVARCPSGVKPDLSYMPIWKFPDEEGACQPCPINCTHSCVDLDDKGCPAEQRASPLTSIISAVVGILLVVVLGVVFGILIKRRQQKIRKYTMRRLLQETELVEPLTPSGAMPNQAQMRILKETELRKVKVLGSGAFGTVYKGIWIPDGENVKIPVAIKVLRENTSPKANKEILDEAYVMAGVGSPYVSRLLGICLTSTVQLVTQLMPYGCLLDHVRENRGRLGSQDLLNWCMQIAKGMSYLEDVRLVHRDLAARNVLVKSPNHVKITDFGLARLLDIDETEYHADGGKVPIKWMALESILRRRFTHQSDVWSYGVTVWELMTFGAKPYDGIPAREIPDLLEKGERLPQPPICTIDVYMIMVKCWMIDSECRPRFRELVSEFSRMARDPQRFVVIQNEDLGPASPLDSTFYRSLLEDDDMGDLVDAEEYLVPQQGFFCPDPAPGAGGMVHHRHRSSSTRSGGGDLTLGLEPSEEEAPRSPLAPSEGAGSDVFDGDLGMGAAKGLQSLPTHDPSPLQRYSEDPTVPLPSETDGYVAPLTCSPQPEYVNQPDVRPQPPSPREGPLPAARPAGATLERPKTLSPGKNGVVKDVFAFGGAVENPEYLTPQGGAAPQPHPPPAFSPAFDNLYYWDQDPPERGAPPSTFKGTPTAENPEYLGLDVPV
Assay: biochemical
Format: cell-based, Insect cells
Details: insect cells

| SMILES | IC50 |
| --- | --- |
| CCCCC(=O)N(Cc1ccc(-c2ccccc2-c2nnn[nH]2)cc1)[C@H](C(=O)O)C(C)C | Not Active |
| O=C(O)COc1ccc(C(=O)c2cccs2)c(Cl)c1Cl | Not Active |
| C[C@@](Cc1ccc(O)c(O)c1)(NN)C(=O)O.O [CARBIDOPA] | Not Active |
| CC(C)NC[C@@H](O)COc1cccc2ccccc12 [DEXPROPRANOLOL] | Not Active |
| CC(C)NC[C@H](O)COc1cccc2ccccc12 [LEVOPROPRANOLOL] | Not Active |
| O=C(O)CCCCC1CCSS1 (stereo not drawn) [LIPOIC ACID, ALPHA] | Not Active |
| Oc1ccc2c3c1O[C@H]1[C@@H](O)CC[C@@]4(O)[C@@H](C2)N(CC2CCC2)CC[C@]314 [NALBUPHINE] | Not Active |
| C[C@]12C=CC(=O)C=C1CC[C@@H]1[C@@H]2C(=O)C[C@@]2(C)[C@H]1CC[C@]2(O)C(=O)CO [PREDNISONE] | Not Active |
| COC(=O)[C@H]1[C@H]2C[C@@H]3c4[nH]c5cc(OC)ccc5c4CCN3C[C@H]2C[C@@H](OC(=O)c2cc(OC)c(OC)c(OC)c2)[C@@H]1OC [RESERPINE] | Not Active |
| O=C(O)c1ccccc1O [SALICYLIC ACID] | Not Active |
| CC1CCC(NC(=O)N(CCCl)N=O)CC1 (centres undefined) [SEMUSTINE] | Not Active |
| O=C1C[C@@H]2OCC=C3CN4CC[C@]56c7ccccc7N1[C@H]5[C@H]2[C@H]3C[C@H]46 [STRYCHNINE] | Not Active |
| C[N+](C)(C)CCOC(=O)CCC(=O)OCC[N+](C)(C)C.[Cl-].[Cl-] [SUCCINYLCHOLINE CHLORIDE] | Not Active |

Molecular target: T1, Caspase-1 (Homo sapiens, UniProt P29466);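 also: Caspase-1 enzyme inhibition assay with a peptide substrate; in other assays of this panel Not Active means under 50% inhibition at 10 µM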
T1 sequence (P29466 whole entry): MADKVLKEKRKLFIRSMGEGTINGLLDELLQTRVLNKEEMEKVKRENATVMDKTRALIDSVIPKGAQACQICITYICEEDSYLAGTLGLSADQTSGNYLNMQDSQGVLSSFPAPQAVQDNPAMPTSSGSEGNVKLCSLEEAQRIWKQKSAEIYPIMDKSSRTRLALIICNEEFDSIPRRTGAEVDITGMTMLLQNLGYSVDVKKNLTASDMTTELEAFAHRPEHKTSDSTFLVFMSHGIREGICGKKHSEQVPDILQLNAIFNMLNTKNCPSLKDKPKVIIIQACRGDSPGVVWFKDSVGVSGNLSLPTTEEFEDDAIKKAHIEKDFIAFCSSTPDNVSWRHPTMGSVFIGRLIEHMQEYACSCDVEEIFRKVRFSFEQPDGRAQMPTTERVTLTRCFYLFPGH
Assay: not given
Parameters: species or system Escherichia coli
Details: not given

| SMILES | IC50 |
| --- | --- |
| CCCCC(=O)N(Cc1ccc(-c2ccccc2-c2nnn[nH]2)cc1)[C@H](C(=O)O)C(C)C | Not Active |
| O=C(O)COc1ccc(C(=O)c2cccs2)c(Cl)c1Cl | Not Active |
| C[C@@](Cc1ccc(O)c(O)c1)(NN)C(=O)O.O [CARBIDOPA] | Not Active |
| CC(C)NC[C@@H](O)COc1cccc2ccccc12 [DEXPROPRANOLOL] | Not Active |
| CC(C)NC[C@H](O)COc1cccc2ccccc12 [LEVOPROPRANOLOL] | Not Active |
| O=C(O)CCCCC1CCSS1 (stereo not drawn) [LIPOIC ACID, ALPHA] | Not Active |
| Oc1ccc2c3c1O[C@H]1[C@@H](O)CC[C@@]4(O)[C@@H](C2)N(CC2CCC2)CC[C@]314 [NALBUPHINE] | Not Active |
| C[C@]12C=CC(=O)C=C1CC[C@@H]1[C@@H]2C(=O)C[C@@]2(C)[C@H]1CC[C@]2(O)C(=O)CO [PREDNISONE] | Not Active |
| COC(=O)[C@H]1[C@H]2C[C@@H]3c4[nH]c5cc(OC)ccc5c4CCN3C[C@H]2C[C@@H](OC(=O)c2cc(OC)c(OC)c(OC)c2)[C@@H]1OC [RESERPINE] | Not Active |
| O=C(O)c1ccccc1O [SALICYLIC ACID] | Not Active |
| C[S+]([O-])c1ccc(-c2nc(-c3ccncc3)c(-c3ccc(F)cc3)[nH]2)cc1 (centres undefined) [SB-203580] | Not Active |
| CC1CCC(NC(=O)N(CCCl)N=O)CC1 (centres undefined) [SEMUSTINE] | Not Active |
| O=C1C[C@@H]2OCC=C3CN4CC[C@]56c7ccccc7N1[C@H]5[C@H]2[C@H]3C[C@H]46 [STRYCHNINE] | Not Active |
| C[N+](C)(C)CCOC(=O)CCC(=O)OCC[N+](C)(C)C.[Cl-].[Cl-] [SUCCINYLCHOLINE CHLORIDE] | Not Active |

Molecular target: 5-hydroxytryptamine receptor 4 (Cavia porcellus, UniProt O70528); also: in other assays of this panel Not Active means under 50% inhibition at 10 µM
Sequence (O70528 whole entry): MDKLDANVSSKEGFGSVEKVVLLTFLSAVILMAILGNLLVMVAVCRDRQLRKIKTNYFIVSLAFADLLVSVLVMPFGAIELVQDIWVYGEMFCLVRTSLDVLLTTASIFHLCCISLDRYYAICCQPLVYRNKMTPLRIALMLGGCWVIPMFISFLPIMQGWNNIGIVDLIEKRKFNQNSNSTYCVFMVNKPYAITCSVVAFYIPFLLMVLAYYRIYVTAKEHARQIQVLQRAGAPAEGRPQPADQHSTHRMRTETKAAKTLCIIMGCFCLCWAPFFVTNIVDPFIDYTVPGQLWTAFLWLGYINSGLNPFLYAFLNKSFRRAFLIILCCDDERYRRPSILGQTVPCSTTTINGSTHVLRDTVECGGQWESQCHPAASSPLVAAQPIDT
Assay: not given
Format: cell membranes, Dunkin-Hartley, Striatum, Membrane
Details: not given

| SMILES | IC50 |
| --- | --- |
| CCCCC(=O)N(Cc1ccc(-c2ccccc2-c2nnn[nH]2)cc1)[C@H](C(=O)O)C(C)C | Not Active |
| O=C(O)COc1ccc(C(=O)c2cccs2)c(Cl)c1Cl | Not Active |
| C[C@@](Cc1ccc(O)c(O)c1)(NN)C(=O)O.O [CARBIDOPA] | Not Active |
| CC(C)NC[C@@H](O)COc1cccc2ccccc12 [DEXPROPRANOLOL] | Not Active |
| CC(C)NC[C@H](O)COc1cccc2ccccc12 [LEVOPROPRANOLOL] | Not Active |
| O=C(O)CCCCC1CCSS1 (stereo not drawn) [LIPOIC ACID, ALPHA] | Not Active |
| Oc1ccc2c3c1O[C@H]1[C@@H](O)CC[C@@]4(O)[C@@H](C2)N(CC2CCC2)CC[C@]314 [NALBUPHINE] | Not Active |
| C[C@]12C=CC(=O)C=C1CC[C@@H]1[C@@H]2C(=O)C[C@@]2(C)[C@H]1CC[C@]2(O)C(=O)CO [PREDNISONE] | Not Active |
| COC(=O)[C@H]1[C@H]2C[C@@H]3c4[nH]c5cc(OC)ccc5c4CCN3C[C@H]2C[C@@H](OC(=O)c2cc(OC)c(OC)c(OC)c2)[C@@H]1OC [RESERPINE] | Not Active |
| O=C(O)c1ccccc1O [SALICYLIC ACID] | Not Active |
| CC1CCC(NC(=O)N(CCCl)N=O)CC1 (centres undefined) [SEMUSTINE] | Not Active |
| O=C1C[C@@H]2OCC=C3CN4CC[C@]56c7ccccc7N1[C@H]5[C@H]2[C@H]3C[C@H]46 [STRYCHNINE] | Not Active |
| C[N+](C)(C)CCOC(=O)CCC(=O)OCC[N+](C)(C)C.[Cl-].[Cl-] [SUCCINYLCHOLINE CHLORIDE] | Not Active |

Same assay, conditions: read-out: IC50

| SMILES | pIC50 |
| --- | --- |
| C[S+]([O-])c1ccc(-c2nc(-c3ccncc3)c(-c3ccc(F)cc3)[nH]2)cc1 (centres undefined) [SB-203580] | 4.98 |

Same assay, conditions: read-out: Ki

| SMILES | pKi |
| --- | --- |
| C[S+]([O-])c1ccc(-c2nc(-c3ccncc3)c(-c3ccc(F)cc3)[nH]2)cc1 (centres undefined) [SB-203580] | 5.75 |

From ChEMBL document CHEMBL1909046, “DrugMatrix in vitro pharmacology data”
